The results in this text go back to US9856279B2 (AGIOS PHARMACEUTICALS, INC, priority 2011, dated 2018).

One test relates to U87MG cells. The experiment in a line: Cellular assay for IDH1m inhibitors: inhibition of 2-HG production (LC-MS, 48 hours) in U87MG cells. Format: cell-based. Conditions: Homo sapiens, U-87 MG, inhibition of 2-HG production, U87R132H cells; read-out: U87R132H IC50. An outline of the steps:
(§1)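 Each cell line is plated at 5000 cells/well in DMEM with 10% FBS and left overnight at 37 °C. Test compounds are then added for 48 h, after which 2-HG in the medium is determined by LC-MS; IC50 reflects 50% reduction compared with control.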

The next test concerns the target IDH1 R132H (Homo sapiens, UniProt O75874, R132H). The test is described as follows: Assay for IDH1 R132H inhibitors (NADPH/aKG, resazurin detection). Format: biochemical. Conditions: enzyme assay of Example 12; read-out: IDH1R132H IC50. An outline of the steps: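 Compound added to substrate mix (8 uM NADPH, 2 mM aKG), then enzyme mix (0.2 μg/ml IDH1 R132H); 50 min RT in 20 mM Tris pH 7.5, 150 mM NaCl, 10 mM MgCl2, 0.03% BSA. Resazurin detection mix (30 μM) 5 min RT; resorufin fluorescence Ex544/Em590.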

A further test has as its system HT1080 cells. The experiment in a line: Cellular assay for IDH1m inhibitors: inhibition of 2-HG production (LC-MS, 48 hours) in HT1080 cells. Conditions: Homo sapiens, HT-1080; inhibition of 2-HG production, HT1080 cells; read-out: HT1080 IC50. The format is cell-based. An outline of the steps:
as §1

Sequence of IDH1 R132H (O75874 whole entry R132H): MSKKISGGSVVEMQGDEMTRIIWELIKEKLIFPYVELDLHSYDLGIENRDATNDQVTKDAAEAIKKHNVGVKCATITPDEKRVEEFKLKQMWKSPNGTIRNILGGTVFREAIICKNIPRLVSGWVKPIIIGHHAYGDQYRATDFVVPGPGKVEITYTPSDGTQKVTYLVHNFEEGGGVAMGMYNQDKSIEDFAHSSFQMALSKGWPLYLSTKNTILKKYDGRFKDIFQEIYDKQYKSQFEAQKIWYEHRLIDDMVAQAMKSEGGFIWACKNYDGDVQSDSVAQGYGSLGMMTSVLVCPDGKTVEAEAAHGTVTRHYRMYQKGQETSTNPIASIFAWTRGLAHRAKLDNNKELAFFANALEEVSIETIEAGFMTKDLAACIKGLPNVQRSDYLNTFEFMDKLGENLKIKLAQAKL

`COCCC(=O)N1CCN(c2nc(C3CC3)c(-c3ccc(CNS(C)(=O)=O)cc3)c(C)c2C#N)C[C@H]1C` [Compound 330, (R)—N-(4-{5-cyano-2-cyclopropyl-6-[4-(3-methoxy-propionyl)-3-methyl-piperazin-1-yl]-4-methyl-pyridin-3-yl}-benzyl)-methanesulfonamide]: the IC50 with U87MG cells, on IDH1 R132H and in the test with HT1080 cells was under 500 nM in each case.
On to `C=Cc1ccnc(Oc2cc(C#N)c(N3CCN(C(=O)CCOC)[C@H](C4CC4)C3)nc2C2CC2)c1` [Compound 733], for which the results for the IC50 in the test with U87MG cells, on IDH1 R132H and with HT1080 cells were under 500 nM, under 500 nM and 500 to 1000 nM, respectively.
`C=Cc1ccc2c(-c3cc(C#N)c(N4CCN(C(=O)CCO)[C@H](C5CC5)C4)nc3C3CC3)cncc2n1` [Compound 735, (R)-6-cyclopropyl-2-(3-cyclopropyl-4-(3-hydroxypropanoyl)piperazin-1-yl)-5-(2-vinyl-1,7-naphthyridin-5-yl)nicotinonitrile]: the IC50 with U87MG cells, at IDH1 R132H and with HT1080 cells was under 500 nM in each case.
Take `C=Cc1cc(-c2cc(C#N)c(N3CCN(C(=O)CC4CCCO4)[C@H](C4CC4)C3)nc2C2CC2)ccn1` (stereo partly drawn) [Compound 801, 2-cyclopropyl-6-((3R)-3-cyclopropyl-4-(2-(tetrahydrofuran-2-yl)acetyl)piperazin-1-yl)-2′-vinyl-[3,4′-bipyridine]-5-carbonitrile]: the IC50 with U87MG cells, at IDH1 R132H and in the test on HT1080 cells was under 500 nM throughout.
With `C=Cc1cc(-c2c(C3CC3)nc(N3CCN(C(=O)C[C@@H]4CCO4)[C@H](C4CC4)C3)c(C#N)c2C)ccn1` [Compound 761, 2-cyclopropyl-6-((R)-3-cyclopropyl-4-(2-((S)-oxetan-2-yl)acetyl)piperazin-1-yl)-4-methyl-2′-vinyl-3,4′-bipyridine-5-carbonitrile], the IC50 with U87MG cells, on IDH1 R132H and in the test on HT1080 cells was under 500 nM each time.
As to `COCCC(=O)N1CCN(c2nc(C3CC3)c(-c3cccc(F)c3)c(C)c2C#N)C[C@H]1C` [Compound 265, (R)-6-cyclopropyl-5-(3-fluorophenyl)-2-(4-(3-methoxypropanoyl)-3-methylpiperazin-1-yl)-4-methylnicotinonitrile], the concentration for half-maximal inhibition (IC50) – broadly, the concentration that inhibits the measured activity by half – with U87MG cells is 1000 to 10000 nM; at IDH1 R132H, under 500 nM; with HT1080 cells, 1000 to 10000 nM.
As to `C=Cc1cc(-c2c(C3CC3)nc(N3CCN(C(=O)CN4CCC4=O)[C@H](C4CC4)C3)c(C#N)c2C)ccn1` [Compound 811], the concentration for half-maximal inhibition (IC50) in the test with U87MG cells, on IDH1 R132H and with HT1080 cells was under 500 nM each time.
Turning to `COCCC(=O)N1CCN(c2nc(C3CC3)c(-c3cccc(NS(C)(=O)=O)c3)c(C)c2C#N)C[C@H]1C` [Compound 350, (R)—N-(3-{5-cyano-2-cyclopropyl-6-[4-(3-methoxy-propionyl)-3-methyl-piperazin-1-yl]-4-methyl-pyridin-3-yl}-phenyl)-methane sulfonamide], the IC50 is 500 to 1000 nM with U87MG cells, under 500 nM on IDH1 R132H and 1000 to 10000 nM in the test with HT1080 cells.
In the same order, the values of `C=Cc1cc(Nc2cc(C#N)c(N3CCN(C(=O)CCO)[C@H](C4CC4)C3)nc2C2CC2)ccn1` [Compound 676, (R)-6-cyclopropyl-2-(3-cyclopropyl-4-(3-hydroxypropanoyl)piperazin-1-yl)-5-((2-vinylpyridin-4-yl)amino)nicotinonitrile] are under 500 nM, under 500 nM and under 500 nM.
In the case of `COCCC(=O)N1CCN(c2nc(C3CC3)c(OC(c3ccccc3)C(C)C)cc2C#N)C[C@H]1C` (stereo partly drawn) [Compound 302, 6-cyclopropyl-2-((R)-4-(3-methoxypropanoyl)-3-methylpiperazin-1-yl)-5-(2-methyl-1-phenylpropoxy)nicotinonitrile], the concentration for half-maximal inhibition (IC50) was 1000 to 10000 nM with U87MG cells, under 500 nM on IDH1 R132H and 1000 to 10000 nM in the test with HT1080 cells.
`C=Cc1cc(COc2cc(C#N)c(N3CCN(C(=O)CCOC)[C@H](C)C3)nc2C2CC2)ccn1` [Compound 703, (R)-6-cyclopropyl-2-(4-(3-methoxypropanoyl)-3-methylpiperazin-1-yl)-5-((2-vinylpyridin-4-yl)methoxy)nicotinonitrile]: the IC50 in the test with U87MG cells, at IDH1 R132H and with HT1080 cells was under 500 nM in each case.
Take `COCCC(=O)N1CCN(c2nc(C3CC3)c(-c3cccnc3OC)c(C)c2C#N)C[C@H]1C` [Compound 320, (R)-2-cyclopropyl-2′-methoxy-6-[4-(3-methoxy-propionyl)-3-methyl-piperazin-1-yl]-4-methyl-[3,3′]bipyridinyl-5-carbonitrile]: the 50% inhibitory concentration (IC50) in the test on U87MG cells was under 500 nM; at IDH1 R132H it was under 500 nM; with HT1080 cells it was 500 to 1000 nM.
With `C=Cc1cc(-c2cc(C#N)c(N3CCN(C(=O)CCO)[C@H](C)C3)nc2C2CC2)ncn1` [Compound 621, (R)-6-cyclopropyl-2-(4-(3-hydroxypropanoyl)-3-methylpiperazin-1-yl)-5-(6-vinylpyrimidin-4-yl)nicotinonitrile], the IC50 is 500 to 1000 nM in the test with U87MG cells, under 500 nM at IDH1 R132H and under 500 nM in the test on HT1080 cells.
As for `C=Cc1cc(-c2c(C3CC3)nc(N3CCN(C(=O)C[C@H]4CCO4)[C@H](C4CC4)C3)c(C#N)c2C)cnn1` [Compound 785, 6-cyclopropyl-2-((R)-3-cyclopropyl-4-(2-((R)-oxetan-2-yl)acetyl)piperazin-1-yl)-4-methyl-5-(6-vinylpyridazin-4-yl)nicotinonitrile], the 50% inhibitory concentration (IC50) with U87MG cells, on IDH1 R132H and in the test with HT1080 cells was under 500 nM throughout.
Turning to `C=Cc1ncc2c(-c3cc(C#N)c(N4CCN(C(=O)CCOC)[C@H](C5CC5)C4)nc3C3CC3)cccc2n1` [Compound 635, (R)-6-cyclopropyl-2-(3-cyclopropyl-4-(3-methoxypropanoyl)piperazin-1-yl)-5-(2-vinylquinazolin-5-yl)nicotinonitrile], the IC50 in the test with U87MG cells, on IDH1 R132H and in the test with HT1080 cells was under 500 nM in each case.
For the molecule `C=Cc1cc(-c2cc(C#N)c(N3CCN(C(=O)CCOC)[C@H](C(C)C)C3)nc2C2CC2)c2ccncc2n1` [Compound 611, (R)-6-cyclopropyl-2-(3-isopropyl-4-(3-methoxypropanoyl)piperazin-1-yl)-5-(2-vinyl-1,7-naphthyridin-4-yl)nicotinonitrile], the half-inhibitory concentration (IC50) with U87MG cells, at IDH1 R132H and in the test on HT1080 cells was under 500 nM throughout.
Regarding `C=Cc1cc(-c2cc(C#N)c(N3CCN(C(=O)C4CC4)[C@H](C4CC4)C3)nc2C2CC2)c2ccccc2n1` [Compound 542, (R)-2-(4-(cyclopropanecarbonyl)-3-cyclopropylpiperazin-1-yl)-6-cyclopropyl-5-(2-vinylquinolin-4-yl)nicotinonitrile], the IC50 with U87MG cells, on IDH1 R132H and with HT1080 cells was under 500 nM throughout.
With `COCCC(=O)N1CCN(c2nc(C3CC3)c(-c3ccc(F)c(Cl)c3)c(C)c2C#N)C[C@H]1C` [Compound 271, (R)-5-(3-chloro-4-fluorophenyl)-6-cyclopropyl-2-(4-(3-methoxypropanoyl)-3-methylpiperazin-1-yl)-4-methylnicotinonitrile], the IC50 is 1000 to 10000 nM with U87MG cells, under 500 nM at IDH1 R132H and 1000 to 10000 nM in the test with HT1080 cells.
Turning to `C=Cc1ccnc(Nc2c(C3CC3)nc(N3CCN(C(=O)CCO)[C@H](C4CC4)C3)c(C#N)c2C)c1` [Compound 725, (R)-6-cyclopropyl-2-(3-cyclopropyl-4-(3-hydroxypropanoyl)piperazin-1-yl)-4-methyl-5-((4-vinylpyridin-2-yl)amino)nicotinonitrile], the IC50 in the test with U87MG cells, on IDH1 R132H and in the test on HT1080 cells was under 500 nM each time.
Regarding `COCCC(=O)N1CCN(c2nc(C3CC3)c(Oc3ccnc(Cl)c3)cc2C#N)C[C@H]1C1CC1` [Compound 695, (R)-5-((2-chloropyridin-4-yl)oxy)-6-cyclopropyl-2-(3-cyclopropyl-4-(3-methoxypropanoyl)piperazin-1-yl)nicotinonitrile], the IC50 in the test with U87MG cells, at IDH1 R132H and in the test on HT1080 cells was under 500 nM each time.
In the case of `N#Cc1cc(-c2cccc3nc(O)ccc23)c(C2CC2)nc1N1CCN(C(=O)C2CC2)[C@H](C2CC2)C1` [Compound 476, (R)-2-(4-(cyclopropanecarbonyl)-3-cyclopropylpiperazin-1-yl)-6-cyclopropyl-5-(2-hydroxyquinolin-5-yl)nicotinonitrile], the half-inhibitory concentration (IC50) was under 500 nM with U87MG cells, under 500 nM at IDH1 R132H and 500 to 1000 nM with HT1080 cells.
On to `C=Cc1cc(-c2cc(C#N)c(N3CCN(C(=O)CCOC)[C@H](C4CC4)C3)nc2C2CC2)c2cccnc2n1` [Compound 645, (R)-6-cyclopropyl-2-(3-cyclopropyl-4-(3-methoxypropanoyl)piperazin-1-yl)-5-(2-vinyl-1,8-naphthyridin-4-yl)nicotinonitrile], for which the IC50 in the test with U87MG cells, at IDH1 R132H and in the test with HT1080 cells was under 500 nM in each case.
With `C=C(C)C(=O)Nc1cccc(-c2cc(C#N)c(N3CCN(C(=O)CCOC)[C@H](C)C3)nc2C2CC2)c1` [Compound 449, (R)—N-(3-(5-cyano-2-cyclopropyl-6-(4-(3-methoxypropanoyl)-3-methylpiperazin-1-yl)pyridin-3-yl)phenyl)methacrylamide], the concentration for half-maximal inhibition (IC50) lay in the range of 1000 to 10000 nM in the test with U87MG cells, 500 to 1000 nM on IDH1 R132H and 1000 to 10000 nM with HT1080 cells.
